This passage reports IC50 results from patent publication US9403832B2, “Pyrazolo[1,5-a]pyrimidine-based compounds, compositions comprising them, and methods of their use” (Lexicon Pharmaceuticals, Inc., priority 2012, dated 2016).

Molecules are shown by their SMILES.

The assay deals with T1, AAK1 (Homo sapiens, UniProt Q2M2I8).
T1 construct: NP_055726.2
In words: P81 filter plate assay. It counts as biochemical. To be noted: full-length human AAK1, Mu2 substrate, 33P-ATP. Here is the method:
Compounds were serially diluted into a Labcyte LDV plate (Labcyte, cat#LP-0200) using a Mutiprobe (PerkinElmer) and Biomek FX (Beckman Coulter) so that the highest compound concentration was at 96 μM. Compounds were then pinged (75 nL per well) into a Greiner 384-well reaction plate (Greiner, #781076) using an ECHO 550 Liquid Handler (Labcyte). A total of 12 μl reaction buffer (IMAP buffer containing Tween and DTT, from Molecular Devices) was then added to each well of columns 1 and 13 for the negative controls and 12 μl of 2× AAK1 (0.2 nM full-length human protein, NCBI accession no. NP_055726.2) was added to the remaining wells. Enzyme was then pre-incubated with compound for 10 minutes at RT. Reactions were initiated upon Minitrak (PerkinElmer) addition of 12 μl substrate mix containing 2× Mu2 (0.2 μM, full length human protein), 2× cold ATP (2 μM), and 1.3 μCi of hot ^33P-ATP. […] proceeded for one hour at RT. Meanwhile, Millipore 384-well P81 filter plates (Millipore, catalog #MZPHNOW10) were placed on a plate washer (Zoom ZW, from Titertek) and pre-wet with 50 μl 1% phosphoric acid. Kinase reactions were then stopped upon addition of 24 μl of 2% phosphoric acid to each well and the Minitrak was then used to transfer 40 μl from each well into the pre-wet Millipore 384-well P81 filter plates. Reaction mixtures were incubated for 10 minutes at RT in the P81 plates, followed by washing five times with 100 μl/well of 1% phosphoric acid using the Zoom filter washer. The bottom of each filter plate was sealed followed by addition of 20 μl Microscint 40 to each well, sealing the top of the plates with Flashplate cover, and then waiting one hour until reading on the TopCount (PerkinElmer).

T1 sequence (Q2M2I8 1-863 isoform Q2M2I8-2): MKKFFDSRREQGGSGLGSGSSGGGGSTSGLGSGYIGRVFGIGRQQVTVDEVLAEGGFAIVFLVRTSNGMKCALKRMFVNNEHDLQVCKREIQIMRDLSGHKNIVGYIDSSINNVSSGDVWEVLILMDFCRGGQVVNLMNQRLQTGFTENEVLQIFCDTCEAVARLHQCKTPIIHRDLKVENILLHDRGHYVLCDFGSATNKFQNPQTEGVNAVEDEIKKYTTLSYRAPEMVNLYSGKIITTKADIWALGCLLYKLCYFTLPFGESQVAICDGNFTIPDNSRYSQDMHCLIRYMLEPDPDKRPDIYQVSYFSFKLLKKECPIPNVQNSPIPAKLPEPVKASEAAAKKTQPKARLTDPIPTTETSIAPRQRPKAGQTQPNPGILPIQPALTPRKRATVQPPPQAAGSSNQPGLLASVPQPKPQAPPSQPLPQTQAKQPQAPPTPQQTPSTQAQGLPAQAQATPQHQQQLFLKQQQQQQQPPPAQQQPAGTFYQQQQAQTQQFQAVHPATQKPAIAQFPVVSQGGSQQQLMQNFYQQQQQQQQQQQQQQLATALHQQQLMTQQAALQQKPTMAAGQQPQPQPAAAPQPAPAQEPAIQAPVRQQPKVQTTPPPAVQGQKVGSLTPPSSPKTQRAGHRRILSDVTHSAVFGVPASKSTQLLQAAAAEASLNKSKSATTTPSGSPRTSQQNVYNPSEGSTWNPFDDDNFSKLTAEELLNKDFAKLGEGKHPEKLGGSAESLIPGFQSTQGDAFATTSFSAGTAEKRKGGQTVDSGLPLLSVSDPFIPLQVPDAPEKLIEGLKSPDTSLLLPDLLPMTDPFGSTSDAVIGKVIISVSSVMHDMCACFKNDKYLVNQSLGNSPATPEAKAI

Regarding `COc1ccc(-c2cnn3ccc(N4CC[C@H](N(C)C(=O)OC(C)C)C4)nc23)c(OC)n1` [(S)-isopropyl (1-(3-(2,6-dimethoxypyridin-3-yl)pyrazolo[1,5-a]pyrimidin-5-yl)pyrrolidin-3-yl)(methyl)carbamate], the IC50 was ≤ 100 nM.

Consider `CCOC(=O)N1CCN(c2ccn3ncc(-c4cc(F)ccc4OC)c3n2)CC1` [ethyl 4-(3-(5-fluoro-2-methoxyphenyl)pyrazolo[1,5-a]pyrimidin-5-yl)piperazine-1-carboxylate], for which the IC50 is ≤ 10 nM.

As for `COc1nc(C)ccc1-c1cnn2ccc(N3CCN(CC(F)(F)F)CC3)nc12` [3-(2-methoxy-6-methylpyridin-3-yl)-5-(4-(2,2,2-trifluoroethyl)piperazin-1-yl)pyrazolo[1,5-a]pyrimidine], the IC50 is ≤ 100 nM.

Turning to `Cc1ccc(-c2cnn3ccc(N4CCN(C(=O)OC(C)C)CC4)nc23)cc1F` [isopropyl 4-(3-(3-fluoro-4-methylphenyl)pyrazolo[1,5-a]pyrimidin-5-yl)piperazine-1-carboxylate], the IC50 is ≤ 100 nM.

As to `COc1ncc(F)cc1-c1cnn2ccc(N(C)CCN(C)C(=O)OC(C)C)nc12` [isopropyl (2-((3-(5-fluoro-2-methoxypyridin-3-yl)pyrazolo[1,5-a]pyrimidin-5-yl)(methyl)amino)ethyl)(methyl)carbamate], the IC50 is ≤ 10 nM.

Regarding `COCc1ccccc1-c1cnn2ccc(N3CCN(C(=O)OC(C)C)CC3)nc12` [isopropyl 4-(3-(2-(methoxymethyl)phenyl)pyrazolo[1,5-a]pyrimidin-5-yl)piperazine-1-carboxylate], the half-inhibitory concentration (IC50) was ≤ 1000 nM.

Consider `COc1ncc(F)cc1-c1cnn2ccc(N3CC[C@H](N(C)C(=O)OC(C)C)C3)nc12` [(S)-isopropyl (1-(3-(5-fluoro-2-methoxypyridin-3-yl)pyrazolo[1,5-a]pyrimidin-5-yl)pyrrolidin-3-yl)(methyl)carbamate], for which the IC50 is ≤ 100 nM.

Turning to `COc1ncccc1-c1cnn2ccc(N3C[C@H]4C[C@@H](C3)N4C(=O)OC(C)(C)C)nc12` [(1R,5S)-tert-butyl 3-(3-(2-methoxypyridin-3-yl)pyrazolo[1,5-a]pyrimidin-5-yl)-3,6-diazabicyclo[3.1.1]heptane-6-carboxylate], the IC50 is ≤ 100 nM.

For the compound `[2H]C1([2H])N(C(=O)OC(C)C)C([2H])([2H])C([2H])([2H])N(c2ccn3ncc(Br)c3n2)C1([2H])[2H]` [isopropyl 4-(3-bromopyrazolo[1,5-a]pyrimidin-5-yl)-d8-piperazine-1-carboxylate], the IC50 was ≤ 100 nM.

Turning to `CC(C)C[C@H](N)C(=O)N1CCN(c2ccn3ncc(Cl)c3n2)CC1` [(S)-2-amino-1-(4-(3-chloropyrazolo[1,5-a]pyrimidin-5-yl)piperazin-1-yl)-4-methylpentan-1-one], the IC50 is ≤ 100 nM.

For `CC(C)OC(=O)N1CCN(c2ccn3ncc(-c4cccnc4N)c3n2)CC1` [isopropyl 4-(3-(2-aminopyridin-3-yl)pyrazolo[1,5-a]pyrimidin-5-yl)piperazine-1-carboxylate], the IC50 is ≤ 100 nM.

As to `CC(C)C[C@H](N)C(=O)N1CCN(c2ccn3ncc(Br)c3n2)CC1` [(S)-2-amino-1-(4-(3-bromopyrazolo[1,5-a]pyrimidin-5-yl)piperazin-1-yl)-4-methylpentan-1-one], the IC50 is ≤ 100 nM.

With `CC(C)OC(=O)N1CCN(c2ccn3ncc(I)c3n2)CC1` [isopropyl 4-(3-iodopyrazolo[1,5-a]pyrimidin-5-yl)piperazine-1-carboxylate], the IC50 was ≤ 100 nM.

On to `COc1nc(C)ccc1-c1cnn2ccc(N(C)CCCOC(C)(C)C)nc12` [N-(3-(tert-butoxy)propyl)-3-(2-methoxy-6-methylpyridin-3-yl)-N-methylpyrazolo[1,5-a]pyrimidin-5-amine], for which the IC50 is ≤ 100 nM.

Consider `COCCOc1ccccc1-c1cnn2ccc(N3CCN(C(=O)OC(C)C)CC3)nc12` [isopropyl 4-(3-(2-(2-methoxyethoxy)phenyl)pyrazolo[1,5-a]pyrimidin-5-yl)piperazine-1-carboxylate], for which the IC50 was ≤ 100 nM.

Regarding `CC(C)OC(=O)N1CCN(c2ccn3ncc(-c4cccn5ccnc45)c3n2)CC1` [isopropyl 4-(3-(imidazo[1,2-a]pyridin-8-yl)pyrazolo[1,5-a]pyrimidin-5-yl)piperazine-1-carboxylate], the 50% inhibitory concentration (IC50) was ≤ 100 nM.

Take `COc1ncccc1-c1cnn2ccc(NCCOC(C)(C)C)nc12` [N-(2-(tert-butoxy)ethyl)-3-(2-methoxypyridin-3-yl)pyrazolo[1,5-a]pyrimidin-5-amine]: the IC50 is ≤ 10 nM.

For `COc1ncccc1-c1cnn2ccc(N(C)CCCOC(C)(C)C)nc12` [N-(3-(tert-butoxy)propyl)-3-(2-methoxypyridin-3-yl)-N-methylpyrazolo[1,5-a]pyrimidin-5-amine], the IC50 is ≤ 100 nM.

For the compound `CC(C)(C)OCCCNc1ccn2ncc(Br)c2n1` [3-bromo-N-(3-(tert-butoxy)propyl)pyrazolo[1,5-a]pyrimidin-5-amine], the concentration for half-maximal inhibition (IC50) is ≤ 1000 nM.

Regarding `COc1ncc(F)cc1-c1cnn2ccc(N3CCN(C(=O)OC(C)C)CC3)nc12` [isopropyl 4-(3-(5-fluoro-2-methoxypyridin-3-yl)pyrazolo[1,5-a]pyrimidin-5-yl)piperazine-1-carboxylate], the IC50 was ≤ 10 nM.

For the compound `COc1ncccc1-c1cnn2ccc(N3CCN(c4noc(C(C)C)n4)CC3)nc12` [5-isopropyl-3-(4-(3-(2-methoxypyridin-3-yl)pyrazolo[1,5-a]pyrimidin-5-yl)piperazin-1-yl)-1,2,4-oxadiazole], the IC50 was ≤ 100 nM.

On to `CCOc1ncccc1-c1cnn2ccc(N3CCN(C(=O)OC(C)C)CC3)nc12` [isopropyl 4-(3-(2-ethoxypyridin-3-yl)pyrazolo[1,5-a]pyrimidin-5-yl)piperazine-1-carboxylate], for which the IC50 was ≤ 10 nM.

Regarding `COCCOc1ncccc1-c1cnn2ccc(N3CCN(C(=O)OC(C)C)CC3)nc12` [isopropyl 4-(3-(2-(2-methoxyethoxy)pyridin-3-yl)pyrazolo[1,5-a]pyrimidin-5-yl)piperazine-1-carboxylate], the IC50 was ≤ 100 nM.

Turning to `COc1ncccc1-c1cnn2ccc(-n3cnc(CO)c3)nc12` [(1-(3-(2-methoxypyridin-3-yl)pyrazolo[1,5-a]pyrimidin-5-yl)-1H-imidazol-4-yl)methanol], the IC50 is ≤ 100 nM.

Turning to `CC(C)C[C@H](N)C(=O)N1CCN(c2ccn3ncc(F)c3n2)CC1` [(S)-2-amino-1-(4-(3-fluoropyrazolo[1,5-a]pyrimidin-5-yl)piperazin-1-yl)-4-methylpentan-1-one], the IC50 was ≤ 1000 nM.

As to `COc1ccc(-c2cnn3ccc(N4CCN(C(=O)OC(C)C)CC4)nc23)c(F)n1` [isopropyl 4-(3-(2-fluoro-6-methoxypyridin-3-yl)pyrazolo[1,5-a]pyrimidin-5-yl)piperazine-1-carboxylate], the IC50 is ≤ 100 nM.

In the case of `CCOCCOC(=O)N1CCN(c2ccn3ncc(-c4cccnc4OC)c3n2)CC1` [2-ethoxyethyl 4-(3-(2-methoxypyridin-3-yl)pyrazolo[1,5-a]pyrimidin-5-yl)piperazine-1-carboxylate], the IC50 is ≤ 100 nM.

As to `CC(C)OC(=O)N1CCC[C@H]1CN(C)c1ccn2nccc2n1` [(S)-isopropyl 2-((methyl(pyrazolo[1,5-a]pyrimidin-5-yl)amino)methyl)pyrrolidine-1-carboxylate], the IC50 is ≤ 1000 nM.

Regarding `CC(C)OC(=O)N1CCN(c2ccn3ncc(Cl)c3n2)CC1` [isopropyl 4-(3-chloropyrazolo[1,5-a]pyrimidin-5-yl)piperazine-1-carboxylate], the IC50 was ≤ 100 nM.

For `COc1ncccc1-c1cnn2ccc(N3CCN(C(=O)CC(C)C)CC3)nc12` [1-(4-(3-(2-methoxypyridin-3-yl)pyrazolo[1,5-a]pyrimidin-5-yl)piperazin-1-yl)-3-methylbutan-1-one], the IC50 is ≤ 10 nM.

`COCc1cn(-c2ccn3ncc(-c4cccnc4OC)c3n2)cn1` [5-(4-(methoxymethyl)-1H-imidazol-1-yl)-3-(2-methoxypyridin-3-yl)pyrazolo[1,5-a]pyrimidine]: the IC50 was ≤ 100 nM.

For `COc1ncccc1-c1cnn2ccc(N3C[C@H]4C[C@@H](C3)N4C(=O)OC(C)C)nc12` [(1R,5S)-isopropyl 3-(3-(2-methoxypyridin-3-yl)pyrazolo[1,5-a]pyrimidin-5-yl)-3,6-diazabicyclo[3.1.1]heptane-6-carboxylate], the IC50 is ≤ 100 nM.

For `COc1ncc(F)cc1-c1cnn2ccc(N3CCN(CC(F)(F)F)CC3)nc12` [3-(5-fluoro-2-methoxypyridin-3-yl)-5-(4-(2,2,2-trifluoroethyl)piperazin-1-yl)pyrazolo[1,5-a]pyrimidine], the IC50 is ≤ 1000 nM.

In general, IC50 refers to the concentration at which inhibition is half-maximal. High values mean lower potency, low ones higher potency.
